Results reported in US8518958B2, “Pyrido [2,3-D] pyrimidines and their use as kinase inhibitors” (Forma Therapeutics, Inc., priority 2006, dated 2013).

Columns and labels:
[1] = target: B-Raf delta1-415 (Homo sapiens, UniProt P15056); experiment: B-Raf kinase inhibition (MAPH filter plate, 33P-ATP, MEK1 substrate); details: read-out: Biochemical IC50 B-Raf
How it was run: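 Radiometric filter-binding assay with B-Raf delta1-415 at a level giving 50% turnover, MEK1 substrate and 33P-ATP (12.5 μCi/ml) in 20 mM Mops pH 7.0 with Mg/Mn, 1 h at room temperature. Inhibitor dilution series from 10 μM; EDTA-stopped reactions captured on phosphocellulose filters, counted by scintillation for IC50.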

[2] = target: C-Raf Raf-1 (truncated), active (Homo sapiens, UniProt P04049, Y340D/Y341D); experiment: C-Raf kinase inhibition (MAPH assay / IMAP assay); details: read-out: Biochemical IC50 C-Raf
Sequence of C-Raf Raf-1 (truncated), active (P04049 306-648 Y340D/Y341D): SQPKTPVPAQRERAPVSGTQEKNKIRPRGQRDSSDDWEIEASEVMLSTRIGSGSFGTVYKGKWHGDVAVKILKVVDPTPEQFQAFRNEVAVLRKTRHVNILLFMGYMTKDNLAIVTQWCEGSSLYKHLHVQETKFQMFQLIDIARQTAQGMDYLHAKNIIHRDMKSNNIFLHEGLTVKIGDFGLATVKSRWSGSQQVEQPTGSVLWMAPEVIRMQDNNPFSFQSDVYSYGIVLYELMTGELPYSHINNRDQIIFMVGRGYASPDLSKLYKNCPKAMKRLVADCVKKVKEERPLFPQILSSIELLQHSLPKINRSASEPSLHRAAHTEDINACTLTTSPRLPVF
Text: We characterized the in vitro inhibitory activity against protein kinases of compounds of the present invention by determining their IC50 values (see Table 2).
Kinase: C-Raf Raf-1 (truncated), active (Upstate; cat. no. 14-352)
Reaction Temperature: room temperature
Assay Plate: 96 well U bottom plate (Greiner, 650161)
MultiScreen-PH Plate: 96 well MAPH Filter Plates (Millipore, MAPHNOB50)
Filter Washing Solution: 0.75% H3PO4
Scintillation Liquid: Supermix Liquid Scintillator (PerkinElmer, 1200-439)
Negative Control (C−): 100 mM EDTA, no inhibitor
Positive Control (C+): no inhibitor
Reaction Buffer (Final Concentration):
Final Assay Concentrations:
Kinase: Use kinase conc. yielding 10% ATP turnover as determined in titration experiment.
Adenosine 5′-[γ-^33P]triphosphate: 12.5 μCi/ml (Amersham Biosciences, BF1000)
Substrate: Myelin Basic Protein 57.8 μM (Invitrogen, 13228-010)
Pipetting Sequence: • 1) Add 10 μl 4-fold concentrated substrate+4-fold concentrated ATP in 3-fold concentrated reaction buffer to each well of assay plate • 2) Add 10 μl […] concentrated inhibitor in 4% DMSO in H2O to each well except to C− and C+ wells (starting point: final inhibitor concentration 10 μM; IC50 determination based on dilution series) • 3) Add 10 μl 4% DMSO in H2O to C− and C+ wells • 4) Add 10 μl 500 mM EDTA in H2O to C− wells • 5) Add 10 μl 50 μCi/ml adenosine 5′-[γ-^33P]triphosphate in H2O to each well • 6) Add 10 μl […] concentrated kinase in Reaction Buffer to each well • 7) Incubate 1 hr at room temperature • 8) Add 10 μl 50 mM EDTA in H2O to each well except to C− wells • 9) Prepare MAPH plates by adding 200 μl 0.75% H3PO4 to each well • 10) Exhaust 0.75% H3PO4 using Millipore vacuum station • 11) Add 60 μl 0.75% H3PO4 to each well of MAPH filter plate • 12) Transfer 30 μl sample per well from assay plate to corresponding well of MAPH filter plate • 13) Incubate 30 min at room temperature • 14) Wash each well of MAPH filter plates 3× with 200 μl 0.75% H3PO4 using Millipore vacuum station • 15) Add 20 μl scintillation liquid to each well of MAPH filter plate • 16) Seal MAPH filter plate • 17) Store MAPH filter plate 30 min in darkness • 18) Quantify radioactivity using scintillation counter (MicroBeta, Perkin-Elmer)
Reaction Volume: 8.0108 μl
IMAP Incubation Time: 60 min
Assay Plate: 384 well U bottom, PP, black, low volume (Corning, 3676)
Compound Plate: 384 well U bottom, PS (Falcon, 3995)
IMAP Binding Buffer A: Molecular Devices, R7282
IMAP Binding Buffer B: Molecular Devices, R7283
IMAP Binding Reagent: Molecular Devices, R7207
Negative Control (C−): no kinase, no inhibitor
Reation buffer: 20 mM Hepes, pH 7.5 • 1 mM DTT • 10 mM MnCl2 • 0.01% Brij35
Kinase: Kinase conc. yielding 50% substrate turnover as determined in titration experiment • c-Raf (Upstate 14-352)
Substrate: 5F1-SGQLIDSMANSFV-NH2 400 nM (jpt Peptide Technologies GmbH, Berlin, Germany)
IMAP Binding Solution: 75% IMAP Binding Buffer A • 25% IMAP Binding Buffer B • IMAP Binding Reagent 1:800
Pipetting Sequence: • 1) Add 6 μl 1.33-fold concentrated substrate+1.33-fold concentrated ATP in 1-fold concentrated reaction buffer to each well of assay plate • 2) Add 10.8 nl 740-fold concentrated inhibitor in 100% DMSO to each well except to C− and C+ wells using pintool (CyBio, Jena, Germany) (starting point: final inhibitor concentration 10 μM; IC50 determination based on dilution series) • 3) Add 10.8 nl 100% DMSO to C− and C+ wells using pintool • 4) Add 2 μl reaction buffer to C− wells • 5) Add 2 μl 4-fold concentrated kinase in reaction buffer to each well except C− wells • 6) Incubate according to reaction time at room temperature • 7) Add 15 μl IMAP binding solution to each well • 8) Incubate according to IMAP incubation time at room temperature • 9) Measure fluorescence polarization (Analyst GT, Molecular Devices)

[3] = system: HT-29 tumor cells; experiment: Anti-proliferative activity, SRB assay; format: cell-based, human; details: Homo sapiens, HT-29, 72 h, 72 hours exposure, read-out: CELLULAR IC50 HT-29
How it was run: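 Cells at 3,000-15,000/well, plated 24 h before compound, exposed to a concentration range for 72 hours. Proliferation measured by SRB staining after cold TCA fixation, absorbance at OD570; IC50 estimated from % inhibition versus DMSO-treated cells.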

Sequence of B-Raf delta1-415 (P15056 416-766): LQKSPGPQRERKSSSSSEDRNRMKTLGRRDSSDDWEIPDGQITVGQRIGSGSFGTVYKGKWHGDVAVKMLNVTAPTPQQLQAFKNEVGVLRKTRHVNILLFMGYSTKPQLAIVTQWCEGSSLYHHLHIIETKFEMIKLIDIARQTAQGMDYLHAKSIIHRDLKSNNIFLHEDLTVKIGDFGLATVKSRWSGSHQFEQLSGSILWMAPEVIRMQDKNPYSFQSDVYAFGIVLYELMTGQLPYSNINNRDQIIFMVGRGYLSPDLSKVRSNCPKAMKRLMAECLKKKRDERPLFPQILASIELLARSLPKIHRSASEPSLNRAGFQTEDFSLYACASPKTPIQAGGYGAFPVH

Structure (SMILES) | IC50 [1] | IC50 [2] | IC50 [3]
COn1c(=O)c(-c2c(Cl)cccc2Cl)cc2cnc(Nc3cccc(CO)c3)nc21 [Compound 1, 6-(2,6-Dichlorophenyl)-2-(3-hydroxymethylphenylamino)-8-methoxy-pyrido[2,3-d]pyrimidin-7-one] | < 100 nM | < 100 nM | < 1000 nM
COn1c(=O)c(-c2c(Cl)cccc2Cl)cc2cnc(Nc3cccc(SC)c3)nc21 [Compound 2, 6-(2,6-Dichlorophenyl)-8-methoxy-2-(3-methylthiophenylamino)-pyrido[2,3-d]pyrimidin-7-one] | < 100 nM | < 500 nM | < 1000 nM
COc1cccc(Nc2ncc3cc(-c4c(Cl)cccc4Cl)c(=O)n(OC)c3n2)c1 [Compound 3, 6-(2,6-Dichlorophenyl)-8-methoxy-2-(3-methoxyphenylamino)-pyrido[2,3-d]pyrimidin-7-one] | < 100 nM | < 100 nM | < 1000 nM
COn1c(=O)c(-c2c(Cl)cccc2Cl)cc2cnc(Nc3cccc(S(N)(=O)=O)c3)nc21 [Compound 4, 6-(2,6-Dichlorophenyl)-8-methoxy-2-(3-sulfamoylphenylamino)-pyrido[2,3-d]pyrimidin-7-one] | < 500 nM | < 100 nM | < 1000 nM
COn1c(=O)c(-c2ccccc2Cl)cc2cnc(Nc3cccc(CO)c3)nc21 [Compound 5, 6-(2-Chlorophenyl)-8-methoxy-2-(3-hydroxymethylphenylamino)-pyrido[2,3-d]pyrimidin-7-one] | < 500 nM | < 100 nM | < 1000 nM
COn1c(=O)c(-c2ccccc2Cl)cc2cnc(Nc3cccc(S(N)(=O)=O)c3)nc21 [Compound 6, 6-(2-Chlorophenyl)-8-methoxy-2-(3-sulfamoylphenylamino)-pyrido[2,3-d]pyrimidin-7-one] | < 500 nM | < 100 nM | < 1000 nM
COc1cccc(Nc2ncc3cc(-c4ccccc4Cl)c(=O)n(OC)c3n2)c1 [Compound 7, 6-(2-Chlorophenyl)-8-methoxy-2-(3-methoxyphenylamino)-pyrido[2,3-d]pyrimidin-7-one] | < 1000 nM | < 100 nM | < 1000 nM
COn1c(=O)c(-c2c(F)cccc2Cl)cc2cnc(Nc3ccc(OCCN(C)C)cc3)nc21 [Compound 8, 6-(2-Chloro-6-fluorophenyl)-8-methoxy-2-(4-(2-dimethylaminoethoxy)-phenylamino)-pyrido[2,3-d]pyrimidin-7-one] | < 100 nM | < 100 nM | < 1000 nM
COn1c(=O)c(-c2cc(NC(=O)c3ccccc3)ccc2Cl)cc2cnc(Nc3ccc(N4CCN(C)CC4)cc3)nc21 [Compound 9, 6-(5-Benzoylamino-2-chloro-phenyl)-8-methoxy-2-(4-(4-methylpiperazino)-phenylamino)-pyrido[2,3-d]pyrimidin-7-one] | < 500 nM | < 100 nM | < 1000 nM
COn1c(=O)c(-c2c(Cl)cccc2Cl)cc2cnc(Nc3cccc(S(=O)(=O)CCO)c3)nc21 [Compound 10, 6-(2,6-Dichlorophenyl)-8-methoxy-2-(3-(2-hydroxyethylsulfonyl)phenylamino)-pyrido[2,3-d]pyrimidin-7-one] | < 100 nM | < 100 nM | < 1000 nM
COn1c(=O)c(-c2c(Cl)cccc2Cl)cc2cnc(Nc3ccc(S(C)(=O)=O)cc3)nc21 [Compound 11, 6-(2,6-Dichlorophenyl)-8-methoxy-2-(4-methylsulfonylphenylamino)-pyrido[2,3-d]pyrimidin-7-one] | < 100 nM | < 100 nM | < 1000 nM

The remaining lines, values ahead:

IC50 [1] | IC50 [2] | IC50 [3] | Structure (SMILES)
< 100 nM | < 100 nM | < 1000 nM | COn1c(=O)c(-c2c(Cl)cccc2Cl)cc2cnc(Nc3ccncc3)nc21 [Compound 13, 6-(2,6-Dichlorophenyl)-8-methoxy-2-(pyrid-4-ylamino)-pyrido[2,3-d]pyrimidin-7-one]
< 100 nM | < 100 nM | < 1000 nM | COn1c(=O)c(-c2c(Cl)cccc2Cl)cc2cnc(Nc3ccc(N4CCN(C)CC4)cc3)nc21 [Compound 14, 6-(2,6-Dichlorophenyl)-8-methoxy-2-(4-(4-methylpiperazino)-phenylamino)-pyrido[2,3-d]pyrimidin-7-one]
< 100 nM | < 100 nM | < 1000 nM | COn1c(=O)c(-c2c(F)cccc2Cl)cc2cnc(Nc3cccc(CO)c3)nc21 [Compound 15, 6-(2-Chloro-6-fluorophenyl)-8-methoxy-2-(3-hydroxymethylphenylamino)-pyrido[2,3-d]pyrimidin-7-one]
< 500 nM | < 500 nM | < 1000 nM | COn1c(=O)c(-c2ccc(Cl)cc2Cl)cc2cnc(Nc3ccc(OCCN(C)C)cc3)nc21 [Compound 16, 6-(2,4-Dichlorophenyl)-8-methoxy-2-(4-(2-dimethylaminoethoxy)-phenylamino)-pyrido[2,3-d]pyrimidin-7-one]
– | < 100 nM | < 1000 nM | COn1c(=O)c(-c2c(C)cccc2C)cc2cnc(Nc3cccc(S(N)(=O)=O)c3)nc21 [Compound 72, 6-(2,6-Dimethylphenyl)-8-methoxy-2-(3-sulfamoylphenylamino)-pyrido[2,3-d]pyrimidin-7-one]
< 100 nM | – | < 1000 nM | COn1c(=O)c(-c2c(F)cccc2Cl)cc2cnc(Nc3ccc(N4CCN(S(C)(=O)=O)CC4)cc3)nc21 [Compound 223, 6-(2-Chloro-6-fluorophenyl)-8-methoxy-2-(4-(4-methylsulfonylpiperazino)phenyl)-amino-pyrido[2,3-d]pyrimidin-7-one]
> 1000 nM | – | < 10000 nM | O=c1ccc2cnc(Nc3ccccc3)nc2n1OC1CCCC1 [Compound 225]
> 1000 nM | – | < 10000 nM | O=c1ccc2cnc(Nc3ccc(N4CCOCC4)cc3)nc2n1OC1CCCC1 [Compound 226]
< 1000 nM | – | < 10000 nM | Nc1ncc2cc(-c3c(Cl)cccc3Cl)c(=O)n(OCc3cccnc3)c2n1 [Compound 232, 2-Amino-6-(2,6-dichlorophenyl)-8-(pyrid-3-yl)methoxy-pyrido[2,3-d]pyrimidin-7-one]
> 10000 nM | – | > 10000 nM | CC(C)(C)On1c(=O)c(Br)cc2cnc(Nc3ccccc3)nc21 [Compound 239]
> 1000 nM | – | < 10000 nM | O=c1c(-c2ccccc2Cl)cc2cnc(Nc3ccccc3)nc2n1O [Compound 240, 6-(2-Chlorophenyl)-8-hydroxy-2-phenylamino-pyrido[2,3-d]pyrimidin-7-one]
